The supplement of paper PMC10307832

Columns and labels:
Experiment in all cases: relative viability (nuclei count vs DMSO), 5 days (fraction); higher = more cells survive
NCI-H3122 = tested on: NCI-H3122
How it was run: (§1)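 Relative viability divides the nuclei count in treated wells by that in vehicle wells. Lung cancer cell lines were seeded in 1536-well plates, dosed by pin tool the next day, and fixed and stained after 5 days in one step with final 0.05% Triton X-100, 1% formaldehyde and 1 ug/ml Hoechst. Dosing was a single drug or a fixed anchor-drug dose plus five library-drug doses (not always all listed) in √10 steps, and values are medians of duplicate plates imaged at 4×.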

EMC-BAC-2 = tested on: EMC-BAC-2
How it was run: as §1

NCI-H596 = tested on: NCI-H596
How it was run: as §1

ABC-1 = tested on: ABC-1
How it was run: as §1

NCI-H1993 = tested on: NCI-H1993
How it was run: as §1

NCI-H1944 = tested on: NCI-H1944
How it was run: as §1

LK-2 = tested on: LK-2
How it was run: as §1

HARA = tested on: HARA
How it was run: as §1

NCI-H2228 = tested on: NCI-H2228
How it was run: as §1

SW 900 = tested on: SW 900
How it was run: as §1

HOP-62 = tested on: HOP-62
How it was run: as §1

NCI-H322M = tested on: NCI-H322M
How it was run: as §1

NCI-H2170 = tested on: NCI-H2170
How it was run: as §1

PC-3 [JPC-3] = tested on: PC-3 [JPC-3]
How it was run: as §1

NCI-H1792 = tested on: NCI-H1792
How it was run: as §1

SW 1573 = tested on: SW 1573
How it was run: as §1

LXF-289 = tested on: LXF-289
How it was run: as §1

NCI-H2009 = tested on: NCI-H2009
How it was run: as §1

SK-MES-1 = tested on: SK-MES-1
How it was run: as §1

NCI-H522 = tested on: NCI-H522
How it was run: as §1

A-427 = tested on: A-427
How it was run: as §1

NCI-H727 = tested on: NCI-H727
How it was run: as §1

For `Nc1ccn([C@@H]2O[C@H](CO)[C@@H](O)[C@@H]2O)c(=O)n1` [Cytarabine] + Cc1nc(Nc2ncc(C(=O)Nc3c(C)cccc3Cl)s2)cc(N2CCN(CCO)CC2)n1 [Dasatinib] (partner 0.075 µM), the relative viability (NCI-H3122; first compound 0.005 µM) was 0.807, the relative viability (NCI-H3122; first compound 0.01581 µM) was 0.76 and the relative viability (NCI-H3122; first compound 0.05 µM) was 0.789. The relative viability (NCI-H3122; first compound 0.1581 µM) was 0.349, the relative viability (NCI-H3122; first compound 0.5 µM) was 0.17 and the relative viability (EMC-BAC-2; first compound 0.005 µM) was 0.344. For the same molecule, the relative viability (EMC-BAC-2; first compound 0.01581 µM) was 0.278, the relative viability (EMC-BAC-2; first compound 0.05 µM) was 0.203 and the relative viability (EMC-BAC-2; first compound 0.1581 µM) was 0.154. It also gave a relative viability (EMC-BAC-2; first compound 0.5 µM) of 0.113, a relative viability (NCI-H596; first compound 0.005 µM) of 0.606 and a relative viability (NCI-H596; first compound 0.01581 µM) of 0.477. For the same molecule, the relative viability (NCI-H596; first compound 0.05 µM) was 0.601, the relative viability (NCI-H596; first compound 0.1581 µM) was 0.48 and the relative viability (NCI-H596; first compound 0.5 µM) was 0.427. It also gave a relative viability (ABC-1; first compound 0.005 µM) of 0.501, a relative viability (ABC-1; first compound 0.01581 µM) of 0.492 and a relative viability (ABC-1; first compound 0.05 µM) of 0.564. It also gave a relative viability (ABC-1; first compound 0.1581 µM) of 0.473, a relative viability (ABC-1; first compound 0.5 µM) of 0.332 and a relative viability (NCI-H1993; first compound 0.005 µM) of 0.74. For the same molecule, the relative viability (NCI-H1993; first compound 0.01581 µM) was 0.58, the relative viability (NCI-H1993; first compound 0.05 µM) was 0.523 and the relative viability (NCI-H1993; first compound 0.1581 µM) was 0.49. For the same molecule, the relative viability (NCI-H1993; first compound 0.5 µM) was 0.425, the relative viability (NCI-H1944; first compound 0.005 µM) was 0.177 and the relative viability (NCI-H1944; first compound 0.01581 µM) was 0.123. The relative viability (NCI-H1944; first compound 0.05 µM) was 0.117, the relative viability (NCI-H1944; first compound 0.1581 µM) was 0.0903 and the relative viability (NCI-H1944; first compound 0.5 µM) was 0.0942. For the same molecule, the relative viability (LK-2; first compound 0.005 µM) was 0.309, the relative viability (LK-2; first compound 0.01581 µM) was 0.27 and the relative viability (LK-2; first compound 0.05 µM) was 0.236. It also gave a relative viability (LK-2; first compound 0.1581 µM) of 0.157, a relative viability (LK-2; first compound 0.5 µM) of 0.163 and a relative viability (HARA; first compound 0.005 µM) of 0.309. It also gave a relative viability (HARA; first compound 0.01581 µM) of 0.222, a relative viability (HARA; first compound 0.05 µM) of 0.227 and a relative viability (HARA; first compound 0.1581 µM) of 0.0854. The relative viability (HARA; first compound 0.5 µM) was 0.0721, the relative viability (NCI-H2228; first compound 0.005 µM) was 0.299 and the relative viability (NCI-H2228; first compound 0.01581 µM) was 0.158. The relative viability (NCI-H2228; first compound 0.05 µM) was 0.159, the relative viability (NCI-H2228; first compound 0.1581 µM) was 0.0724 and the relative viability (NCI-H2228; first compound 0.5 µM) was 0.0511. The relative viability (SW 900; first compound 0.005 µM) was 0.837, the relative viability (SW 900; first compound 0.01581 µM) was 0.446 and the relative viability (SW 900; first compound 0.05 µM) was 0.314. The relative viability (HOP-62; first compound 0.005 µM) was 0.58, the relative viability (HOP-62; first compound 0.01581 µM) was 0.531 and the relative viability (HOP-62; first compound 0.05 µM) was 0.421. It also gave a relative viability (HOP-62; first compound 0.1581 µM) of 0.157, a relative viability (HOP-62; first compound 0.5 µM) of 0.11 and a relative viability (NCI-H322M; first compound 0.005 µM) of 0.259. For the same molecule, the relative viability (NCI-H322M; first compound 0.01581 µM) was 0.272, the relative viability (NCI-H322M; first compound 0.05 µM) was 0.26 and the relative viability (NCI-H322M; first compound 0.1581 µM) was 0.243. For the same molecule, the relative viability (NCI-H322M; first compound 0.5 µM) was 0.274, the relative viability (NCI-H2170; first compound 0.005 µM) was 0.576 and the relative viability (NCI-H2170; first compound 0.01581 µM) was 0.589. The relative viability (NCI-H2170; first compound 0.05 µM) was 0.533, the relative viability (NCI-H2170; first compound 0.1581 µM) was 0.244 and the relative viability (NCI-H2170; first compound 0.5 µM) was 0.241. It also gave a relative viability (PC-3 [JPC-3]; first compound 0.005 µM) of 0.952, a relative viability (PC-3 [JPC-3]; first compound 0.01581 µM) of 0.884 and a relative viability (PC-3 [JPC-3]; first compound 0.05 µM) of 1.01. The relative viability (PC-3 [JPC-3]; first compound 0.1581 µM) was 0.63, the relative viability (PC-3 [JPC-3]; first compound 0.5 µM) was 0.603 and the relative viability (NCI-H1792; first compound 0.005 µM) was 1.34. For the same molecule, the relative viability (NCI-H1792; first compound 0.01581 µM) was 0.657, the relative viability (NCI-H1792; first compound 0.05 µM) was 0.603 and the relative viability (NCI-H1792; first compound 0.1581 µM) was 0.503. For the same molecule, the relative viability (NCI-H1792; first compound 0.5 µM) was 0.355, the relative viability (SW 1573; first compound 0.005 µM) was 0.34 and the relative viability (SW 1573; first compound 0.01581 µM) was 0.333. The relative viability (SW 1573; first compound 0.05 µM) was 0.381, the relative viability (SW 1573; first compound 0.1581 µM) was 0.122 and the relative viability (SW 1573; first compound 0.5 µM) was 0.089. It also gave a relative viability (LXF-289; first compound 0.005 µM) of 0.221, a relative viability (LXF-289; first compound 0.01581 µM) of 0.202 and a relative viability (LXF-289; first compound 0.05 µM) of 0.171. For the same molecule, the relative viability (LXF-289; first compound 0.1581 µM) was 0.112, the relative viability (LXF-289; first compound 0.5 µM) was 0.0684 and the relative viability (NCI-H2009; first compound 0.005 µM) was 0.304. The relative viability (NCI-H2009; first compound 0.01581 µM) was 0.275, the relative viability (NCI-H2009; first compound 0.05 µM) was 0.295 and the relative viability (NCI-H2009; first compound 0.1581 µM) was 0.192. For the same molecule, the relative viability (NCI-H2009; first compound 0.5 µM) was 0.146, the relative viability (SK-MES-1; first compound 0.005 µM) was 0.213 and the relative viability (SK-MES-1; first compound 0.01581 µM) was 0.174. The relative viability (SK-MES-1; first compound 0.05 µM) was 0.127, the relative viability (SK-MES-1; first compound 0.1581 µM) was 0.117 and the relative viability (SK-MES-1; first compound 0.5 µM) was 0.113. It also gave a relative viability (NCI-H522; first compound 0.005 µM) of 0.935, a relative viability (NCI-H522; first compound 0.01581 µM) of 0.802 and a relative viability (NCI-H522; first compound 0.05 µM) of 0.769. For the same molecule, the relative viability (NCI-H522; first compound 0.1581 µM) was 0.562, the relative viability (NCI-H522; first compound 0.5 µM) was 0.55 and the relative viability (A-427; first compound 0.005 µM) was 0.591. The relative viability (A-427; first compound 0.01581 µM) was 0.215, the relative viability (A-427; first compound 0.05 µM) was 0.195 and the relative viability (A-427; first compound 0.1581 µM) was 0.141. For the same molecule, the relative viability (A-427; first compound 0.5 µM) was 0.135, the relative viability (NCI-H727; first compound 0.005 µM) was 0.319 and the relative viability (NCI-H727; first compound 0.01581 µM) was 0.303. The relative viability (NCI-H727; first compound 0.05 µM) was 0.447, the relative viability (NCI-H727; first compound 0.1581 µM) was 0.271 and the relative viability (NCI-H727; first compound 0.5 µM) was 0.294.
